{"source": "patent US20070027175A1", "about": "“Antineoplastic activities of ellipticine and its derivatives” (priority 2005, published 2007)", "key": {"[1]": {"system": "12 myeloma cell lines (Ark, BW288, CAG, Delta47, DF15, JJN3, kms11, L363, opm2, RPMI8226, U266 and XG1)", "experiment": "Comparative study with existing anti-myeloma drugs (CellTiter-Glo)", "assay_type": "cell-based, human", "design": "time to inhibition of cell proliferation: dose or concentration left out as unconfirmed", "text": "The results obtained from these controls are pooled together in the figure (●). The dose of each compound was set […].\nComparative study of NSC 338258 with existing anti-myeloma drugs Myeloma cell lines were exposed to NSC 338258 and existing anti myeloma drugs, Adriamycin® (Doxorubicin Hydrochloride) and Etoposide (VP-16-213) in ninety six well culture plates. The concentration of each compound was set […]. […] The cell growth was near zero in the following days (day 4 onwards; FIG. 6). It was also observed that 12 myeloma cell lines (Ark, BW288, CAG, Delta47, DF15, JJN3, kms11, L363, opm2, RPMI8226, U266 and XG1) responded to the same dosage (0.2 μM) of NSC 338258, VP-16-213 and Adriamycin in 5 days."}, "Ark myeloma cell line": {"system": "Ark myeloma cell line", "experiment": "CellTiter-Glo luminescent cell viability assay, Ark", "assay_type": "cell-based, human", "design": "unit of the concentration uncertain", "method": "(§1) The dosage of each derivative was set at 2, 0.2 and 0.02 mM. A cell culture medium control and 0.5% DMSO control was maintained in each experiment. The cell viability was tested each day over a period of five days using the CellTiter-Glo luminescent cell viability assay kit from Promega Co.\n(§2) Cell Titer-Glo luminescent cell viability assay kit from Promega Co (Madison, Wis.) was used to determine cell growth inhibition by the various compounds tested. The kit determines cell viability by quantifying the amount of ATP present in the cell culture medium. Presence of ATP signals the presence of metabolically active cells (3). The intensity of luminescence was measured by a computerized luminometer (Promega, Co. Madison, Wis.). Each well was read five times within 30 minutes of adding Cell Titer-Glo reagent mixture.\n(§3) Cells were contacted with the antineoplastic agents in ninety six well culture plates. The concentration of each neoplastic agent was maintained a constant. A cell culture medium control and 0.5% DMSO control were maintained in each set of experiments. The cell viability was tested every day using the CellTiter-Glo luminescent cell viability kit from Promega Co. (Madison, Wis.) for a period of five days."}, "[2]": {"system": "myeloma cell lines chronically exposed to Velcade", "experiment": "Myeloma cell lines with acquired Velcade tolerance", "assay_type": "cell-based"}, "CAG myeloma cell line": {"system": "CAG myeloma cell line", "experiment": "CellTiter-Glo luminescent cell viability assay, CAG", "assay_type": "cell-based, human", "design": "unit of the concentration uncertain", "method": "as §1, §2, §3"}, "U266 cells": {"system": "U266 cells", "assay_type": "cell-based, human", "details": "for disruption of mitochondria (MitoTracker Red CMXRos): 6 hours, EPED3 2 mM, Velcade 0.5 mM", "text": "FIGS. 15A-15C show fluorescent images of EPED3 endoplasmic distribution and induction of apoptosis, which was also detected by Western Blot. […] For analysis by fluorescence microscopy, nuclei were stained with DAPI (blue), mitochondria with MitoTracker Red CMXRos (red), and cytochrome c with FITC-conjugated secondary antibodies (green); EPED3 is excited by ultraviolet light (wavelength<500 nm) and was visualized as gold.\nThe appearance of large cytoplasmic vacuoles (arrows) and diminished mitochondria in cells treated with EPED3 indicate ongoing apoptosis. […] Cytochrome c disassociation with mitochondria also indicates initiation of the intrinsic apoptotic pathway. […] Protein extracts ([…]) were analyzed by Western blotting, using goat anti-human Caspase-3, -8, and -9 polyclonal antibodies. […] In contrast, both EPED3 and Velcade treatments initiated the intrinsic pathway, which releases cytochrome c to induce rapid cleavage of Caspase-9 into its activated form. The consequent Caspase-3 activation indicates activity of the intracellular proteolytic cascade. Abbreviations: C=Medium control, E=EPED3, V=Velcade.\nMyeloma cells were co-cultured with human fetal bone mesenchymal cells in the TC inserts. The cells were treated with individual antimyeloma agents at desired concentrations. An aliquot containing 10^6 cells was transferred to 24-well plate and mixed with MitoTracker Red CMXRos (Invitrogen) at 50 nM final concentration. After a 15-minute incubation, cells were collected and washed with PBS and resuspended at 5×10^5 cells/ml for slide adhesion by the Cytospinning method. […]\nAutofluorescence of EPED3 was used to visually examine its effects on myeloma cells. […] Cells that ingested EPED3 were, therefore, discernible by the characteristic golden light emitted under fluorescence microscopy. […]\nTo further investigate effects of EPED3 on mitochondrial integrity and cytochrome c, treated U266 cells were immunohistochemically analyzed."}, "myeloma cells": {"system": "myeloma cells", "experiment": "Velcade sensitivity of myeloma cells without and with stromal co-culture", "assay_type": "cell-based, human", "text": "The bone marrow microenvironment augments myelomagenesis and can protect myeloma cells from destruction when patients undergo systemic and supportive therapies. In vitro, via direct cell-cell adhesion or soluble factors generated by […] interactions, myeloma cells are reportedly well protected from chemotherapeutic agents (Nefedova et al., 2001)."}}}
{"smiles": "Cc1c2ccncc2c(C)c2c1[nH]c1ccc(OCCN(C)C)cc12", "note": "[NSC 338258, ellipticine, 9-dimethyl amino-ethoxy-]", "values": [{"measurement": "time to inhibition of cell proliferation", "setting": "[1]", "result": "≤ 24", "unit": "h"}, {"measurement": "response of 12 myeloma cell lines", "setting": "[1]; 0.2 μM, in 5 days", "result": "responded"}, {"measurement": "cell viability (CellTiter-Glo luminescent assay)", "setting": "Ark myeloma cell line; 0.02 (unit uncertain), Day 1", "result": "99,050"}, {"measurement": "cell viability (CellTiter-Glo luminescent assay)", "setting": "Ark myeloma cell line; 0.02 (unit uncertain), Day 2", "result": "187,835"}, {"measurement": "cell viability (CellTiter-Glo luminescent assay)", "setting": "Ark myeloma cell line; 0.02 (unit uncertain), Day 3", "result": "297,927"}, {"measurement": "cell viability (CellTiter-Glo luminescent assay)", "setting": "Ark myeloma cell line; 0.02 (unit uncertain), Day 4", "result": "764,382"}, {"measurement": "cell viability (CellTiter-Glo luminescent assay)", "setting": "Ark myeloma cell line; 0.02 (unit uncertain), Day 5", "result": "982,255"}, {"measurement": "cell viability (CellTiter-Glo luminescent assay)", "setting": "Ark myeloma cell line; 0.2 (unit uncertain), Day 1", "result": "1,085"}, {"measurement": "cell viability (CellTiter-Glo luminescent assay)", "setting": "Ark myeloma cell line; 0.2 (unit uncertain), Day 2", "result": 489}, {"measurement": "cell viability (CellTiter-Glo luminescent assay)", "setting": "Ark myeloma cell line; 0.2 (unit uncertain), Day 3", "result": 384}, {"measurement": "cell viability (CellTiter-Glo luminescent assay)", "setting": "Ark myeloma cell line; 0.2 (unit uncertain), Day 4", "result": 530}, {"measurement": "cell viability (CellTiter-Glo luminescent assay)", "setting": "Ark myeloma cell line; 0.2 (unit uncertain), Day 5", "result": 376}, {"measurement": "cell viability (CellTiter-Glo luminescent assay)", "setting": "Ark myeloma cell line; 2 (unit uncertain), Day 1", "result": 523}, {"measurement": "cell viability (CellTiter-Glo luminescent assay)", "setting": "Ark myeloma cell line; 2 (unit uncertain), Day 2", "result": 342}, {"measurement": "cell viability (CellTiter-Glo luminescent assay)", "setting": "Ark myeloma cell line; 2 (unit uncertain), Day 3", "result": 366}, {"measurement": "cell viability (CellTiter-Glo luminescent assay)", "setting": "Ark myeloma cell line; 2 (unit uncertain), Day 4", "result": 478}, {"measurement": "cell viability (CellTiter-Glo luminescent assay)", "setting": "Ark myeloma cell line; 2 (unit uncertain), Day 5", "result": 299}, {"measurement": "cross-tolerance of Velcade-tolerant cells", "setting": "[2]; data not shown", "result": "such Velcade-tolerance did not apply"}, {"measurement": "cell viability (CellTiter-Glo luminescent assay)", "setting": "CAG myeloma cell line; 0.02 (unit uncertain), Day 1", "result": "173,140"}, {"measurement": "cell viability (CellTiter-Glo luminescent assay)", "setting": "CAG myeloma cell line; 0.02 (unit uncertain), Day 2", "result": "383,737"}, {"measurement": "cell viability (CellTiter-Glo luminescent assay)", "setting": "CAG myeloma cell line; 0.02 (unit uncertain), Day 3", "result": "780,458"}, {"measurement": "cell viability (CellTiter-Glo luminescent assay)", "setting": "CAG myeloma cell line; 0.02 (unit uncertain), Day 4", "result": "1,670,491"}, {"measurement": "cell viability (CellTiter-Glo luminescent assay)", "setting": "CAG myeloma cell line; 0.02 (unit uncertain), Day 5", "result": "3,108,577"}, {"measurement": "cell viability (CellTiter-Glo luminescent assay)", "setting": "CAG myeloma cell line; 0.2 (unit uncertain), Day 1", "result": "103,658"}, {"measurement": "cell viability (CellTiter-Glo luminescent assay)", "setting": "CAG myeloma cell line; 0.2 (unit uncertain), Day 2", "result": "105,998"}, {"measurement": "cell viability (CellTiter-Glo luminescent assay)", "setting": "CAG myeloma cell line; 0.2 (unit uncertain), Day 3", "result": "111,306"}, {"measurement": "cell viability (CellTiter-Glo luminescent assay)", "setting": "CAG myeloma cell line; 0.2 (unit uncertain), Day 4", "result": "123,316"}, {"measurement": "cell viability (CellTiter-Glo luminescent assay)", "setting": "CAG myeloma cell line; 0.2 (unit uncertain), Day 5", "result": "64,052"}, {"measurement": "cell viability (CellTiter-Glo luminescent assay)", "setting": "CAG myeloma cell line; 2 (unit uncertain), Day 1", "result": "76,441"}, {"measurement": "cell viability (CellTiter-Glo luminescent assay)", "setting": "CAG myeloma cell line; 2 (unit uncertain), Day 2", "result": "39,273"}, {"measurement": "cell viability (CellTiter-Glo luminescent assay)", "setting": "CAG myeloma cell line; 2 (unit uncertain), Day 3", "result": "23,807"}, {"measurement": "cell viability (CellTiter-Glo luminescent assay)", "setting": "CAG myeloma cell line; 2 (unit uncertain), Day 4", "result": "19,546"}, {"measurement": "cell viability (CellTiter-Glo luminescent assay)", "setting": "CAG myeloma cell line; 2 (unit uncertain), Day 5", "result": "5,483"}, {"measurement": "cell uptake and distribution (autofluorescence)", "setting": "U266 cells", "result": "instantly permeated the cells and distributed throughout the cytosol"}, {"measurement": "disruption of mitochondria (MitoTracker Red CMXRos)", "setting": "U266 cells", "result": "Disruption of mitochondria"}]}
{"smiles": "CC(C)C[C@H](NC(=O)[C@H](Cc1ccccc1)NC(=O)c1cnccn1)B(O)O", "note": "[Velcade, bortezomib, reference compound]", "values": [{"measurement": "effective low dose", "setting": "myeloma cells; absence of stromal cells", "result": 4, "unit": "nM"}, {"measurement": "reduction in sensitivity", "setting": "myeloma cells; co-culture versus absence of stromal cells, data not shown", "result": "more than 100 fold"}, {"measurement": "tolerance of myeloma cells to Velcade", "setting": "myeloma cells; co-culture with human fetal bone mesenchymal cells, data not shown", "result": "up to 500 nM"}, {"measurement": "tolerance level after chronic exposure", "setting": "[2]; in vitro chronic exposure to Velcade, several myeloma cell lines", "result": "> 5", "unit": "nM"}, {"measurement": "disruption of mitochondria (MitoTracker Red CMXRos)", "setting": "U266 cells", "result": "mitochondrial disruption was not seen"}]}
